Test results reported in patent US10633419B2, “Immunomodulators” (BRISTOL-MYERS SQUIBB COMPANY, priority 2014, dated 2020).
Starred links: 1 amine or outer side, 2 acyl side, 3 side chain; linkers in the order of their positions; H or OH if unused. Positions of bridges follow the written chain, without caps; N, C: chain ends. Non-standard residues stand in square brackets, D forms with d. Residues, ends and D or L forms follow the SMILES beside them. ξ: configuration not given here. *: point of attachment. Dap(Nα-HOOC(CH2)16CO)OH = O=C(O)CCCCCCCCCCCCCCCCC(=O)N[C@@H](CN*)C(=O)O; X18 = O=C(O)CCCCCCCCCCCCCCC(=O)N[C@@H](CC(=O)NCCCOCCOCCOCCCN*)C(=O)O; Trp(1-CH2COOH) = N[C@@H](Cc1cn(CC(=O)O)c2ccccc12)C(=O)O; X9 = O=C(O)CCCCCCCCCCCCCCCCC(=O)N[C@@H](CCN*)C(=O)O; X5 = O=C(O)CCCCCCCCCCCCCCCCC(=O)NCCCOCCOCCOCCCN*; NH(CH2)16COOH = O=C(O)CCCCCCCCCCCCCCCCN*; NH(CH2)14COOH = O=C(O)CCCCCCCCCCCCCCN*; βAsp = O=C(O)[C@H](CC(=O)[*:2])N[*:1]; X19 = O=C(C1C[C@H](O)CN1[*:1])[*:2]; ξPro(4R-OH) = O=C(O)C1C[C@@H](O)CN1; PEG6 = NCCOCCOCCOCCOCCOCCOCCC(=O)O; Hyp = O=C(O)[C@@H]1C[C@@H](O)CN1; NMeNle = CCCC[C@H](NC)C(=O)O; Pip = O=C(O)[C@@H]1CCCCN1; NMeA = CN[C@@H](C)C(=O)O; Dab = NCC[C@H](N)C(=O)O; Dap = NC[C@H](N)C(=O)O; PEG1 = NCCOCCC(=O)O

Biological target: T1, PD-L1 (Homo sapiens, UniProt Q9NZQ7)
T1 construct: hPDL1(19-239)-TVMV-His; made in house; host or cells: HEK293T
T1 sequence (Q9NZQ7 with tags, fused parts or gaps): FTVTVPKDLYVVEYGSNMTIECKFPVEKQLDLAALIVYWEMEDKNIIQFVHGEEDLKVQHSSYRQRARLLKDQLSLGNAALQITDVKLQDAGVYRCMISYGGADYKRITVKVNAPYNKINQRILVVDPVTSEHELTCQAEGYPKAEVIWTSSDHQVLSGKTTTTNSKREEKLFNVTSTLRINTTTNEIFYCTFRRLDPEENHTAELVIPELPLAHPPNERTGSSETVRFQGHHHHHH
Assay: PD-1/PD-L1 Homogenous Time-Resolved Fluorescence (HTRF) binding assay (PD-1-Ig/PD-L1-His)
Conditions: inhibition of PD-1-Ig binding to PD-L1-TVMV-His; value given as number; read-out: HTRF IC50
Method in brief: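 Inhibitors pre-incubated 15 min with PD-L1-His (10 nM final), then PD-1-Ig (20 nM final) added for 15 min in dPBS/0.1% BSA/0.05% Tween-20. Eu-cryptate anti-Ig (1 nM) and APC anti-His (20 nM) added, 30 min equilibration, 665/620 nm HTRF ratio read.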

SMILES	IC50 [nM]
CCCC[C@H]1C(=O)N(C)[C@@H](CCCC)C(=O)N[C@@H](CC(C)C)C(=O)N[C@H](C(=O)NCCCOCCOCCOCCCNC(=O)CCCCCCCCCCCCCCCCC(=O)O)CSCC(=O)N[C@@H](Cc2ccc(O)cc2)C(=O)N(C)[C@@H](C)C(=O)N[C@@H](CC(N)=O)C(=O)N2CCC[C@H]2C(=O)N[C@@H](CN)C(=O)N[C@@H](CCC(N)=O)C(=O)N2C[C@H](O)C[C@H]2C(=O)N[C@@H](Cc2c[nH]c3ccccc23)C(=O)N[C@@H](CO)C(=O)N[C@@H](Cc2cn(CC(=O)O)c3ccccc23)C(=O)N1C [Example 11133] ({CH2CO}-Y[NMeA]NP[Dap]Q[Hyp]WS[Trp(1-CH2COOH)][NMeNle][NMeNle]LC-X5; thioether N-14)	1570

Same assay, conditions: inhibition of PD-1-Ig binding to PD-L1-TVMV-His; value given as range class; read-out: HTRF IC50

SMILES	IC50 [nM]
CCCC[C@H]1C(=O)N(C)[C@@H](CCCC)C(=O)N[C@@H](CC(C)C)C(=O)N[C@H](C(=O)NCC(=O)N[C@@H](CCC(=O)O)C(=O)NCCOCCOCCOCCOCCOCCOCCC(=O)NC[C@H](NC(=O)CCCCCCCCCCCCCCCCC(=O)O)C(=O)O)CSCC(=O)N[C@@H](Cc2ccc(O)cc2)C(=O)N(C)[C@@H](C)C(=O)N[C@@H](CC(N)=O)C(=O)N2CCC[C@H]2C(=O)N[C@@H](CN)C(=O)N[C@@H](CC(C)C)C(=O)N2C[C@H](O)CC2C(=O)N[C@@H](Cc2c[nH]c3ccccc23)C(=O)N[C@@H](CCN)C(=O)N[C@@H](Cc2cn(CC(=O)O)c3ccccc23)C(=O)N1C (stereo partly drawn) [Example 11182] ({CH2CO}-Y[NMeA]NP[Dap]L[ξPro(4R-OH)]W[Dab][Trp(1-CH2COOH)][NMeNle][NMeNle]LCGE[PEG6]-{Dap(Nα-HOOC(CH2)16CO)OH}; thioether N-14)	100 to 1600
CCCC[C@H]1C(=O)N(C)[C@@H](CCCC)C(=O)N[C@@H](CC(C)C)C(=O)N[C@@H](C(=O)N[C@@H](CC(=O)O)C(=O)N[C@@H](CC(=O)NCCCOCCOCCOCCCNC(=O)C[C@H](NC(=O)CCCCCCCCCCCCCCC(=O)O)C(=O)O)C(=O)O)CSCC(=O)N[C@@H](Cc2ccc(O)cc2)C(=O)N(C)[C@@H](C)C(=O)N[C@@H](CC(N)=O)C(=O)N2CCC[C@@H]2C(=O)N[C@@H](CN)C(=O)N[C@@H](CC(C)C)C(=O)N2C[C@@H](O)CC2C(=O)N[C@@H](Cc2c[nH]c3ccccc23)C(=O)N[C@@H](CCN)C(=O)N[C@@H](Cc2cn(CC(=O)O)c3ccccc23)C(=O)N1C (stereo partly drawn) [Example 11244] ({CH2CO}-Y[NMeA]N[dP][Dap]L[X19]W[Dab][Trp(1-CH2COOH)][NMeNle][NMeNle]L[dC]DD(X18)-OH; thioether N-14)	100 to 1600
CCCC[C@H]1C(=O)N(C)[C@@H](CCCC)C(=O)N[C@@H](CC(C)C)C(=O)N[C@H](C(=O)NCC(=O)N[C@H](CC(=O)O)C(=O)NCCCCCCCCCCCCCCCCC(=O)O)CSCC(=O)N[C@@H](Cc2ccc(O)cc2)C(=O)N(C)[C@@H](C)C(=O)N[C@@H](CC(N)=O)C(=O)N2CCC[C@H]2C(=O)N[C@@H](CN)C(=O)N[C@@H](CC(C)C)C(=O)N2C[C@H](O)C[C@H]2C(=O)N[C@@H](Cc2c[nH]c3ccccc23)C(=O)N[C@@H](CCN)C(=O)N[C@@H](Cc2cn(CC(=O)O)c3ccccc23)C(=O)N1C [Example 11190] ({CH2CO}-Y[NMeA]NP[Dap]L[Hyp]W[Dab][Trp(1-CH2COOH)][NMeNle][NMeNle]LCG[dD]-{NH(CH2)16COOH}; thioether N-14)	10 to 99
CCCC[C@H]1C(=O)N(C)[C@@H](CCCC)C(=O)N[C@@H](CC(C)C)C(=O)N[C@H](C(=O)NCC(=O)N[C@@H](CC(=O)NCCOCCC(=O)NCC[C@H](NC(=O)CCCCCCCCCCCCCCCCC(=O)O)C(=O)O)C(=O)O)CSCC(=O)N[C@@H](Cc2ccc(O)cc2)C(=O)N2CCCC[C@H]2C(=O)N[C@@H](CC(N)=O)C(=O)N2CCC[C@H]2C(=O)N[C@@H](CN)C(=O)N[C@@H](CC(C)C)C(=O)N2C[C@H](O)C[C@H]2C(=O)N[C@@H](Cc2c[nH]c3ccccc23)C(=O)N[C@@H](CCN)C(=O)N[C@@H](Cc2cn(CC(=O)O)c3ccccc23)C(=O)N1C [Example 13161] ({CH2CO}-Y[Pip]NP[Dap]L[Hyp]W[Dab][Trp(1-CH2COOH)][NMeNle][NMeNle]LCG[βAsp][PEG1]-X9; thioether N-14)	0.3 to 9.9
CCCC[C@H]1C(=O)N(C)[C@@H](CCCC)C(=O)N[C@@H](CC(C)C)C(=O)N[C@H](C(=O)NCC(=O)NCCCCCCCCCCCCCCC(=O)O)CSCC(=O)N[C@@H](Cc2ccc(O)cc2)C(=O)N(C)[C@@H](C)C(=O)N[C@@H](CC(N)=O)C(=O)N2CCC[C@H]2C(=O)N[C@@H](CN)C(=O)N[C@@H](CC(C)C)C(=O)N2C[C@H](O)C[C@H]2C(=O)N[C@@H](Cc2c[nH]c3ccccc23)C(=O)N[C@@H](CCN)C(=O)N[C@@H](Cc2cn(CC(=O)O)c3ccccc23)C(=O)N1C [Example 11197] ({CH2CO}-Y[NMeA]NP[Dap]L[Hyp]W[Dab][Trp(1-CH2COOH)][NMeNle][NMeNle]LCG-{NH(CH2)14COOH}; thioether N-14)	10 to 99
